Test results taken from US4916145A, “Substituted n-[(pyridyl)alkyl]aryl-carboxamide” (Hoffmann-La Roche Inc., priority 1987, dated 1990).

Tests used:
[1] = system: PAF-Induced Platelet Count Decrease; assay: PAF-Induced Platelet Count Decrease; type: in vivo, guinea pig; details: for inhibition in vivo at 3 mg/kg: Cavia porcellus, Platelet, 0.25 h, iv, 15 minutes pretreatment time, read-out: PAF-Induced Platelet Count Decrease % Inhibition, i.v.
Protocol: Male Hartley guinea pigs weighing between 500 and 900 grams were fed standard guinea pig chow and tap water ad libitum. PAF was solubilized in ethanol and stored as a 2 mM stock solution at -70° C. The stock solution of PAF was diluted to […] in Tris buffer pH 7.4 and 0.1% BSA for all experiments.
Guinea pigs were anesthetized with urethane (1.6 g/kg, i.p.). A catheter (PE50) was introduced into the right carotid artery for withdrawing blood. A second catheter PE10) was introduced into the jugular vein for injecting drugs and for administering the PAF challenge (75 ng/kg, i.v.). A control blood sample was obtained and platelets were counted in a whole blood platelet analyzer. PAF was then given and blood samples were taken 15, 30, and 60 seconds after the challenge for platelet counts. Fifteen minutes later, selected concentrations of the test compound were solubilized in DMSO and injected intravenously into a group of 4-6 animals. Only one concentration of the test drug was used in each animal group. Fifteen minutes after drug injection, blood samples were taken before and 15, 30, and 60 sec after the PAF challenge, and analyzed for platelet number.
Animals were anesthetized with sodium pentobarbital (35 mg/kg. i.p.) and the carotid artery and jugular vein were cannulated as described above. The cannulae were exteriorized at the base of the neck and the animals were allowed to recover. Conscious, unrestrained guinea pigs which were allowed to recover from surgery for at least 18 hours were used in the experiments. The animals were challenged two times with PAF (120 ng/kg, i.v.); the first to establish a consistent response to PAF and the second to serve as a control from the PAF challenge. Blood samples were taken before and 15, 30, and 45 seconds after PAF challenge and platelets were counted. Thirty minutes after the control PAF challenge, the animals were orally dosed with either gum acacia or the test compound. Animals were then challenged with PAF at 1, 3, 5, and 24 hours after the administration of the drug.
The % change, i.e., the difference in platelet number before and after PAF challenge was calculated by: [formula] The % activity of drug was then determined by
Statistical significance (p≤0.05) of the difference between the mean PAF control and mean drug treated activity was determined with the pared Students's t-test.

[2] = system: PAF-Induced Bronchoconstriction; assay: PAF-Induced Bronchoconstriction Assay; type: in vivo, guinea pig; details: Cavia porcellus; for inhibition in vivo at 1 mg/kg: 1 min, 1 mg/kg iv, 1 minute pretreatment; for inhibition in vivo at 50 mg/kg: po, 2 hours pretreatment
Protocol: The in vivo ability of compounds to inhibit PAF-induced bronchoconstriction in guinea pigs was assessed by the intravenous and oral routes of administration. The intravenous technique utilized male guinea pigs (Hartley strain, Charles River) weighing 400-600 g. Animals were anesthetized with urethane (2 g/kg) intraperitoneally and a polyethylene cannula was inserted into the jugular vein for intravenous drug administration. Tracheal pressure ([…]) was recorded from a Statham pressure transducer (P 32 AA). Propranolol was administered 5 minutes prior to challenge with PAF. Two minutes later spontaneous breathing was arrested with succinylcholine chloride (1.2 mg/kg) administered intravenously, and the animals were ventilated with a Harvard (Model 680) small animal respirator set at 40 breaths/min and 4.0 cc stroke volume. Control vehicle or test drug was administered through the cannula into the jugular vein 1 minute before the animals were challenged with a maximum constrictory dose of PAF (1.0 μg/kg) given intravenously. The change in tracheal pressure was averaged for four control and four drug-treated animals and percent inhibition was calculated.
For determination of oral activity, animals were dosed with test compound or vehicle two hours prior to challenge with PAF (1.0 μg/kg, i.v.).
The change in tracheal pressure is determined by subtracting the steady state baseline achieved after administration of succinylcholine from the peak bronchoconstriction seen after challenge with PAF. The mean change in tracheal pressure is calculated for each test compound and compared to the mean change in tracheal pressure for the control animals to give the percent inhibition of bronchoconstriction. The standard error is calculated as the standard error of the mean.

[3] = molecular target: T1, PAF binding, dog platelets (Canis lupus familiaris, UniProt A0A8I3NSH0); assay: PAF Binding Assay (3H-PAF binding to washed dog platelets); details: 10 minutes at room temperature
T1 sequence (A0A8I3NSH0 1-343): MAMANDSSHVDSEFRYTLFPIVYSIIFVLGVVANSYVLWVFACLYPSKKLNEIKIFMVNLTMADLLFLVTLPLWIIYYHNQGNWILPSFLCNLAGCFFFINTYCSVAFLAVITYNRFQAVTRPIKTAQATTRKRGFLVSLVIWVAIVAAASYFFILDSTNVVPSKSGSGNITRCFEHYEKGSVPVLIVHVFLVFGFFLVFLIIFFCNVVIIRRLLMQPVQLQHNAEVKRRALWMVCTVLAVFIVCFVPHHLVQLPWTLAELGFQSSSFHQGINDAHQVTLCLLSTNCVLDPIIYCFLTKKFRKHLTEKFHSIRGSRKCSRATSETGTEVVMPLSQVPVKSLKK
Protocol: The binding assay was performed in 400 μl polyethylene microcentrifuge tubes (Beckman) containing 50 μl of an oil mixture of 2 parts Siliconol AR200 (Serva): 1 part Silicone Fluid (Arthur H. Thomas). Buffer, standards, or analogs 150 μl total volume) were added to the tubes. Radiolabelled ^3 H-PAF (50 μl) was then added to the tubes. The reaction was started by the addition of 50 μl of dog platelets (2×10^7 platelets). The tubes were capped, inverted several times to mix, and incubated for 10 minutes at room temperature. The platelets were separated from the incubation mixture by centrifuging 1 minute in a Beckman Microfuge B centrifuge. The tip of the microfuge tube was cut off, and the platelets were washed out of the tip with 200 μl of 50% methanol (Burdick and Jackson). Aquasol (NEN, 10 ml) was added and the radioactivity in the samples was determined using an LS 8100 Beckman liquid scintillation counter linked to a Techtran tape recorder. Data was processed through an in-house computer system. Alternatively, radioactivity was determined using a Searle Mark III liquid scintillation counter linked to a Iso-Data microprocessor.
Blood was collected from anesthesized or unanesthesized dogs into 5ml plastic centrifuge tubes containing 3.8% sodium citrate as the anticoagulant (1 volume of citrate/9 volumes of blood). The red cells were removed by centrifugation for 15 minutes at 600 rpm (100-125 g) at room temperature. An aliquot of the supernatant platelet rich Plasma (PRP) was saved for cell counting and the remainder was acidified to pH 6.5 with 0.15M citric acid. The platelet pellet was obtained after a 10 minute centrifugation at 2000 rpm (1000 g) at room temperature. Washed platelets were prepared by resuspending the platelet pellet once with PBS containing 1 mM EDTA, centrifuging as noted, and then resuspending the platelets in 0.1% BSA-PBS. An aliquot of the washed platelets was counted, platelets used for binding assays were diluted to 2×10^7 platelets/assay tube (4×10^8 platelets/ml).

[4] = molecular target: T2, Thromboxane Synthase (TXA2 Syn.) (Homo sapiens, UniProt P24557); assay: TXA2 Synthesis Inhibition (thromboxane synthase, microsomal fractions from human platelets); type: biochemical; details: human platelet microsomes, 10 μM 14C-PGH2, 22°, 2 minutes
T2 construct: microsomal fractions from human platelets as enzyme source; from tissue; host or cells: microsomal fractions from human platelets
T2 sequence (P24557 1-533): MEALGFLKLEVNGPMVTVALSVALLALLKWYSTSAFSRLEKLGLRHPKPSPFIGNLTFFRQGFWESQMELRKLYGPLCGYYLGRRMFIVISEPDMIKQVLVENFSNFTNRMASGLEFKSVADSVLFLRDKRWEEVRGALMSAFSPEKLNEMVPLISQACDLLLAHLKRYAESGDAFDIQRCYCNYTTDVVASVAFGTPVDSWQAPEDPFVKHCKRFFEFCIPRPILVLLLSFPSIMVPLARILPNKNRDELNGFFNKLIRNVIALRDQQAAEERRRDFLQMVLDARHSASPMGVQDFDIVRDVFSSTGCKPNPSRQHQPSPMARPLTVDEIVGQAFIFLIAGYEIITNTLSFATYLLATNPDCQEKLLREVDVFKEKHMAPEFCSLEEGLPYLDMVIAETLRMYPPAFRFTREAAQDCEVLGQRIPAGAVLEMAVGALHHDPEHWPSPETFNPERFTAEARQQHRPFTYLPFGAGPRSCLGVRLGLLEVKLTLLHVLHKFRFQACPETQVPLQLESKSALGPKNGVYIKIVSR
Protocol: Thromboxane synthase inhibitory activity is measured by following the conversion of ^14 C-[…] using microsomal fractions from human platelets as enzyme source. In the aqueous incubation medium. The TXA2 decomposes rapidly into TXB2 . The amount of TXA2 syn. is adjusted so that under the conditions of the assay approximately 80-90% of the substrate. PGH2, is converted to product in control tubes. To prepare ^14 C-PGH2, ^14 C-AA(50-60mCi/mmole; Rose Chem.) is incubated with sheep seminal vesicular gland microsomes for 1.5 min. at 37° and then the ^14 C-PGH2 is extracted with diethylether, purified on columns of Sephadex LH-20 or silicic acid, and stored in acetone at -70° C. Incubations are done as follows. Sufficient ^14 C-PGH2 to yield a final substrate concentration of 10 μM ( 30,000 cpm) is added to the incubation tubes and then the acetone is removed under nitrogen. The tubes are placed in an ice bath and then 215 μl of ice cold phosphate buffered saline, 10 μof ethanol (control) or of test drug in ethanol, and 25 μl of the microsomal suspension are added with mixing in that order as rapidly as possible. The tubes are incubated at 22° for 2 minutes, the reaction is stopped and then the radioactive products and the unconverted PGH2 are extracted and analyzed by thin layer chromatography. The amount of ^14 C-PGH2 converted to products is analyzed by thin layer chromatography. The amount of ^14 C-PGH2 converted to products was used as a measure of TXA synthase activity. Inhibitors were tested initially at a concentration of 100 μM.

| SMILES | inhibition in vivo at 3 mg/kg [1] [%] | PAF-Induced Platelet Count Decrease % Inhibition, po ([1]; po, no dose footnote printed) [%] | inhibition in vivo at 1 mg/kg [2] [%] | IC50 [3] [nM] | IC50 [4] [nM] | inhibition in vivo at 50 mg/kg [2] [%] |
| --- | --- | --- | --- | --- | --- | --- |
| COc1ccc(-c2ccc(C(=O)NC(C)CCCc3cccnc3)cc2)cc1OC (racemic) [(rac.)-3',4'-Dimethoxy-N-[1-methyl-4-(3-pyridinyl)butyl][1,1'-biphenyl]-4-carboxamide] | 26 | 75 ± 21 |  |  |  |  |
| Cc1ccc(-c2ccc(C(=S)NC(C)CCCc3cccnc3)cc2)cc1C (racemic) [rac.-3',4'-Dimethyl-N-[1-methyl-4-(3-pyridinyl)butyl][1,1'-biphenyl]-4-carbothioamide] | 28 |  | 4 ± 4 | 110 |  |  |
| Cc1ccc(-c2ccc(C(=O)NCCCCc3cccnc3)cc2)cc1C [3',4'-Dimethyl-N-[4-(3-pyridinyl)butyl][1,1-biphenyl]-4-carboxamide] |  |  |  | 700 | 125 |  |
| COc1ccc(-c2cc(C)c(C(=O)NCCCCc3cccnc3)c(C)c2)cc1OC [3',4'Dimethoxy-3,5-dimethyl-N-[4-(3-pyridinyl)butyl][1,1'-biphenyl]-4-carboxamide] | 14 |  | 17 ± 11 | 60 |  |  |
| O=C(NCCCCc1cccnc1)c1ccc(-c2cccc(O)c2)cc1 [3'-Hydroxy-N-[4-(3-pyridinyl)-butyl][1,1'-biphenyl]-4-carboxamide] |  |  |  | 300 | < 100 |  |
| COc1cccc(-c2ccc(C(=O)NCCCCc3cccnc3)cc2)c1 [3'-Methoxy-N-[4-(3-pyridinyl)butyl][1,1'-biphenyl]-4-carboxamide] |  |  | 70 ± 10 | 280 | 25 | 55 ± 17 |
| O=C(NCCCCc1cccnc1)c1ccc(-c2ccccc2)c(-c2ccccc2)c1 [3,4-Diphenyl-N-[4-(3-pyridinyl)butyl]-benzamide] | 49 |  | 21 ± 4 |  |  | 33 ± 12 |
| COc1cccc(-c2ccc(C(=O)NCCCCc3cccnc3)cc2-c2cccc(OC)c2)c1 [3,4-bis-(3-Methoxyphenyl)-N-[4-(3-pyridinyl)butyl]-benzamide] | 4 |  | 12 ± 6 |  |  |  |
| COc1ccc(-c2ccc(C(=O)N[C@H](C)CCCc3cccnc3)cc2Br)cc1OC [(R)-2-Bromo-3',4'-dimethoxy-N-[1-methyl-4-(3-pyridinyl)-butyl][1,1'-biphenyl]-4-carboxamide] |  |  | 98 ± 0.7 | 180 |  | 97 ± 1 |
| CCc1cc(C(=O)N[C@H](C)CCCc2cccnc2)ccc1-c1ccc(OC)c(OC)c1 [(R)-2-Ethyl-3',4'-dimethoxy-N-[1-methyl-4-(3-pyridinyl)butyl][1,1'-biphenyl]-4-carboxamide] |  |  | 93 ± 1 | 4 |  | 89 ± 5 |
| COc1ccc(-c2ccc(C(=O)N[C@H](C)CCCc3cccnc3)cc2[N+](=O)[O-])cc1OC [(R)-2-Nitro-3',4'-dimethoxy-N-[1-methyl-4-(3-pyridinyl)-butyl][1,1'-biphenyl]-4-carboxamide] |  |  | 97 ± 4 | 200 |  | 89 ± 8 |
| CCCc1cc(C(=O)N[C@H](C)CCCc2cccnc2)ccc1-c1ccccc1 [(R)-2-Propyl-N-[1-methyl-4-(3-pyridinyl)-butyl]-[1,1'-biphenyl]-4-carboxamide] |  |  | 12 ± 6 | 50 |  |  |
| C=CCc1cc(C(=O)N[C@H](C)CCCc2cccnc2)ccc1-c1ccc(OC)c(OC)c1 [(R)-3',4'-Dimethoxy-N-[1-methyl-4-(3-pyridinyl)butyl]-2-(2-propenyl)-[1,1'-biphenyl]-4-carboxamide] |  |  | 80 ± 11 | 80 |  | 93 ± 3 |
| CCCc1cc(C(=O)N[C@H](C)CCCc2cccnc2)ccc1-c1ccc(OC)c(OC)c1 [(R)-3',4'-Dimethoxy-N-[1-methyl-4-(3-pyridinyl)butyl]-2-propyl-[1,1'-biphenyl]-4-carboxamide] |  |  | 28 ± 12 | 50 |  |  |
| COc1cccc(-c2ccc(C(=O)N[C@H](C)CCCc3cccnc3)cc2)c1 [(R)-3'-Methoxy-N-[1-methyl-4-(3-pyridinyl)butyl]-[1,1'-biphenyl]-4-carboxamide] | 17 |  |  | 20 |  |  |
| C[C@H](CCCc1cccnc1)NC(=O)c1ccc(-c2ccccc2)c(-c2ccccc2)c1 [(R)-3,4-diphenyl-N-[1-methyl-4-(3-pyridinyl)-butyl]benzamide] |  |  | 31 ± 4 | 250 |  |  |
| O=C(NCCCCc1cccnc1)c1ccc(-c2ccccc2)cc1 [N-[4-(3-Pyridinyl)butyl]-[1,1'-biphenyl]-4-carboxamide] |  |  | 42 ± 7 |  | 100 |  |
| O=C(NCCCCc1cccnc1)c1cccc(-c2ccccc2)c1 [N-[4-(3-pyridinyl)butyl][1,1'-biphenyl]-3-carboxamide] |  |  | 14 ± 10 | 620 |  |  |
